Experimental data as given in US20250206745A1, “PYRROLOPYRIDAZINE DERIVATIVES AND RELATED USES” (NodThera Limited, priority 2023, published 2025).
Structures can show the parent of a compound that is named as a salt.

Key:
[1] = test system: IL-1β release upon NLRP3 activation in phorbol 12-myristate 13-acetate (PMA)-differentiated THP-1 cells; experiment: THP-1 IC50 Determination Assay; type: cell-based; conditions: Homo sapiens, inhibition of IL-1β release, LPS, nigericin, ELISA
Protocol: The compounds of the present disclosure were tested for their inhibitory activity against IL-1β release upon NLRP3 activation in phorbol 12-myristate 13-acetate (PMA)-differentiated THP-1 cells.
THP-1 cells stored in liquid nitrogen were thawed in a 37° C. water bath. The cells were added into complete RPMI 1640 medium (FBS (56 mL), 100× Penicillin-Streptomycin (5.6 mL) and 0.05 mM 2-Mercaptoethanol in RPMI 1640 Medium (500 mL)) and centrifuged for 5 min at 1000 rpm. The supernatant was discarded and the cells resuspended into new cell culture medium for culturing. Cells were cultured in cell culture medium and passaged every 3-4 days to maintain cell density between 4×10^5 and 1.5×10^6 cells/mL. The cells were diluted to 0.8×10^6 cells/mL and grown in a T150 flask with PMA (final concentration 5 ng/mL). The flask was incubated in a 37° C. incubator with a humidified atmosphere of 5% CO2 for −40 hours. After −40 hours of PMA differentiation, the flask was washed with DPBS. Cells were digested with Trypsin LE for about 5 min at room temperature, and digestion was terminated using complete RPMI 1640 medium. Cells were centrifuged and resuspended (1000 rpm, 3 min). The supernatant was discarded and cells washed with DPBS, centrifuged and resuspended cells (1000 rpm, 5 min). Cells were plated at 30,000 cells/well in a 384-well PP plate and treated with 25 ng/mL LPS solution diluted in serum-free medium (45 μL). The plate was incubated in a 37° C. incubator with a humidified atmosphere of 5% CO2 for 2 hours. Compounds (from 10 mM DMSO solution) were dispensed and serially diluted by 1:3 eight times, with final 0.5% DMSO concentration. NLRP3 inflammasome was activated with nigericin (5 μL), the plate was centrifuged (1000 rpm, 30 s) and incubated in a 37° C. incubator with a humidified atmosphere of […] for 2 hours. 35 μL/well of supernatant was removed and IL-1β levels determined by ELISA assay (Mabtech 3416-1H-20) according to the manufacturer's instructions.

[2] = test system: IL-1β release upon NLRP3 activation in peripheral blood mononuclear cells (PBMC); experiment: PBMC IC50 Determination Assay; type: cell-based; conditions: Homo sapiens; inhibition of IL-1β release; PBMC primed with LPS, stimulated with ATP or nigericin; ELISA or HTRF
Protocol: The compounds of the present disclosure were tested for their inhibitory activity against IL-1β release upon NLRP3 activation in peripheral blood mononuclear cells (PBMC).
Protocol A. PBMC were isolated from buffy coats by density gradient centrifugation on Histopaque-1077 (Sigma, cat no. 10771). Isolated cells were seeded into the wells of a 96-well plate and incubated for 3 h with lipopolysaccharide (LPS). Following medium exchange, the compounds of the present disclosure were added (a single compound per well) and the cells were incubated for 30 min. Next, the cells were stimulated either with ATP (5 mM) or nigericin (10 μM) for 1 h and the cell culture media from the wells were collected for further analysis.
The release of IL-1β into the media was determined by a quantitative detection of IL-1β in the media using an IL-1β enzyme-linked immunosorbent assay (ELISA) Ready-SET-Go!, eBioscience cat. No. 88-7261-88. Briefly, in a first step, high affinity binding plates (Corning, Costar 9018 or NUNC Maxisorp Cat No. 44-2404) were coated overnight at 4° C. with specific capture antibody included in the kit (anti-human IL-1β ref. 14-7018-68). Subsequently, plates were blocked with blocking buffer for 1 h at room temperature (rt) and after washing with a buffer (PBS with 0.05% Tween-20) incubated with protein standard and culture media. After 2 h of incubation at rt, plates were washed and incubated with biotinylated detection antibody included in the kit (anti-human IL-1β Biotin ref. 33-7110-68) for 1 h at rt. Plates were washed and incubated with HRP-streptavidin for 30 min at rt and washed again. The signal was developed after addition of 3,3′,5,5′-tetramethylbenzidine-peroxidase (TMB) until colour appeared and the reaction was stopped by 2 M H2SO4. A microplate spectrophotometer (BioTek) was used to detect signals with 450 nm. The detection range of IL-1β ELISA was […].
Protocol B. PBMC were isolated from buffy coats by density gradient centrifugation on Histopaque-1077 (Sigma, cat no. 10771). Isolated cells were seeded into the wells (280,000 cells/well) of a 96-well plate and incubated for 3 h with lipopolysaccharide (LPS, 1 μg/mL diluted 1000× from a 1 mg/mL stock solution). The compounds of the present disclosure were added (a single compound per well) and the cells were incubated for 30 min. Next, the cells were stimulated with ATP (5 mM final concentration diluted 20× from a 100 mM stock solution) for 1 h and the cell culture media from the wells were collected for further analysis.
The release of IL-1β into the media was determined by quantitative detection of IL-1β in the media using HTRF®, CisBio cat. No. 62HIL1BPEH. Briefly, cell culture supernatant were dispensed directly into the assay plate containing antibodies labelled with the HTRF® donor and acceptor. A microplate spectrophotometer (BMG) was used to detect signals at 655 nm and 620 nm. The detection range of IL-1β HTRF® was 39-6500 pg/mL.

SMILES | IC50 [1] [nM] | IC50 [2] [nM]
Cc1cc(Cl)cc(O)c1-c1cc2ccn(C[C@@H]3CCN(C)C[C@@H]3F)c2nn1 (relative stereo) [Compound 24, Cis-5-chloro-2-{7-[(3-fluoro-1-methylpiperidin-4-yl)methyl]-7H-pyrrolo[2,3-c]pyridazin-3-yl}-3-methylphenol] | 100 to 300 | 30 to 100
Cc1cc(Cl)cc(O)c1-c1cc2ccn(C[C@@H]3CCN(C)C[C@H]3F)c2nn1 (relative stereo) [Compound 51, Trans-5-chloro-2-{7-[(3-fluoro-1-methylpiperidin-4-yl)methyl]-7H-pyrrolo[2,3-c]pyridazin-3-yl}-3-methylphenol hydrochloride] | 1000 to 3000 | 100 to 300
Cc1cc(C(F)(F)F)cc(O)c1-c1cc2ccn(CC3CCOCC3)c2nn1 [Compound 1, 3-Methyl-2-{7-[(oxan-4-yl)methyl]-7H-pyrrolo[2,3-c]pyridazin-3-yl}-5-(trifluoromethyl)phenol] | 300 to 1000 | 100 to 300
Cc1cc(C(F)(F)F)cc(O)c1-c1cc2ccn(CC3CCCO3)c2nn1 (stereo not drawn) [Compound 2, 3-Methyl-2-{7-[(oxolan-2-yl)methyl]-7H-pyrrolo[2,3-c]pyridazin-3-yl}-5-(trifluoromethyl)phenol] | 100 to 300 | 300 to 1000
Cc1cc(C(F)(F)F)cc(O)c1-c1cc2ccn(CC3CCOC3)c2nn1 (stereo not drawn) [Compound 3, 3-Methyl-2-{7-[(oxolan-3-yl)methyl]-7H-pyrrolo[2,3-c]pyridazin-3-yl}-5-(trifluoromethyl)phenol] | 100 to 300 | 100 to 300
Cc1cc(C(F)(F)F)cc(O)c1-c1cc2ccn(CC3CCN(C)CC3)c2nn1 [Compound 4, 3-Methyl-2-{7-[(1-methylpiperidin-4-yl)methyl]-7H-pyrrolo[2,3-c]pyridazin-3-yl}-5-(trifluoromethyl)phenol] | 30 to 100 | 30 to 100
Cc1cc(C(F)(F)F)cc(O)c1-c1cc2cc[nH]c2nn1 [Compound 5, 3-Methyl-2-{7H-pyrrolo[2,3-c]pyridazin-3-yl}-5-(trifluoromethyl)phenol] | 300 to 1000 | 300 to 1000
Cc1cc(C(F)(F)F)cc(O)c1-c1cc2ccn(C)c2nn1 [Compound 6, 3-Methyl-2-{7-methyl-7H-pyrrolo[2,3-c]pyridazin-3-yl}-5-(trifluoromethyl)phenol] | 300 to 1000 | 300 to 1000
Cc1cc(Cl)cc(O)c1-c1cc2ccn(CC3CCN(CC(F)(F)F)CC3)c2nn1 [Compound 7, 5-Chloro-3-methyl-2-(7-{[1-(2,2,2-trifluoroethyl)piperidin-4-yl]methyl}-7H-pyrrolo[2,3-c]pyridazin-3-yl)phenol] | 300 to 1000 | 300 to 1000
Cc1cc(Cl)cc(O)c1-c1cc2ccn(CC3CCCN(C)C3)c2nn1 (stereo not drawn) [Compound 8, 5-Chloro-3-methyl-2-{7-[(1-methylpiperidin-3-yl)methyl]-7H-pyrrolo[2,3-c]pyridazin-3-yl}phenol] | 100 to 300 | 30 to 100
CC(=O)N1CCC(Cn2ccc3cc(-c4c(C)cc(Cl)cc4O)nnc32)CC1 [Compound 9, 1-(4-{[3-(4-Chloro-2-hydroxy-6-methylphenyl)-7H-pyrrolo[2,3-c]pyridazin-7-yl]methyl}piperidin-1-yl)ethan-1-one] | 30 to 100 | 30 to 100
Cc1cc(Cl)cc(O)c1-c1cc2ccn(CC(=O)N(C)[C@@H]3CCOC3)c2nn1 [Compound 60, 2-[3-(4-Chloro-2-hydroxy-6-methylphenyl)-7H-pyrrolo[2,3-c]pyridazin-7-yl]-N-methyl-N-[(3R)-oxolan-3-yl]acetamide] | 100 to 300 | 
Cc1cc(Cl)cc(O)c1-c1cc2ccn(CC(=O)N(C)[C@H]3CCN(C)C3)c2nn1 [Compound 61, 2-[3-(4-Chloro-2-hydroxy-6-methylphenyl)-7H-pyrrolo[2,3-c]pyridazin-7-yl]-N-methyl-N-[(3S)-1-methylpyrrolidin-3-yl]acetamide hydrochloride] | 100 to 300 | 
Cc1cc(Cl)cc(O)c1-c1cc2ccn(CC(=O)N(C)[C@@H]3CCN(C)C3)c2nn1 [Compound 62, 2-[3-(4-Chloro-2-hydroxy-6-methylphenyl)-7H-pyrrolo[2,3-c]pyridazin-7-yl]-N-methyl-N-[(3R)-1-methylpyrrolidin-3-yl]acetamide hydrochloride] | 300 to 1000 | 
Cc1cc(Cl)cc(O)c1-c1cc2ccn(CC3CC(=O)N(C)C3)c2nn1 (stereo not drawn) [Compound 64, 4-{[3-(4-Chloro-2-hydroxy-6-methylphenyl)-7H-pyrrolo[2,3-c]pyridazin-7-yl]methyl}-1-methylpyrrolidin-2-one] | 100 to 300 | 
Cc1cc(Cl)cc(O)c1-c1cc2ccn(CC3CCN(C)C3=O)c2nn1 (stereo not drawn) [Compound 66, 3-{[3-(4-Chloro-2-hydroxy-6-methylphenyl)-7H-pyrrolo[2,3-c]pyridazin-7-yl]methyl}-1-methylpyrrolidin-2-one] | 300 to 1000 | 
Cc1cc(Cl)cc(O)c1-c1cc2ccn(C3CCN(C)CC3)c2nn1 [Compound 67, 5-Chloro-3-methyl-2-[7-(1-methylpiperidin-4-yl)-7H-pyrrolo[2,3-c]pyridazin-3-yl]phenol] | 300 to 1000 | 
CN1CCC(Cn2ccc3cc(-c4ccc(C#N)cc4O)nnc32)CC1 [Compound 68, 3-Hydroxy-4-{7-[(1-methylpiperidin-4-yl)methyl]-7H-pyrrolo[2,3-c]pyridazin-3-yl}benzonitrile] | 3000 to 10000 | 
Cc1cc(Cl)cc(O)c1-c1cc2ccn([C@@H]3CCN(C)C3=O)c2nn1 [Compound 69, (3R)-3-[3-(4-Chloro-2-hydroxy-6-methylphenyl)-7H-pyrrolo[2,3-c]pyridazin-7-yl]-1-methylpyrrolidin-2-one] | 300 to 1000 | 
Cc1cc(Cl)cc(O)c1-c1cc2ccn(CC3CCC(=O)N(C)C3)c2nn1 (stereo not drawn) [Compound 70, 5-{[3-(4-Chloro-2-hydroxy-6-methylphenyl)-7H-pyrrolo[2,3-c]pyridazin-7-yl]methyl}-1-methylpiperidin-2-one] | 100 to 300 | 
Cc1cc(Cl)cc(O)c1-c1cc2ncn(C[C@@H]3CCCN(C)C3)c2nn1 [Compound 79, 5-Chloro-3-methyl-2-(7-{[(3R)-1-methylpiperidin-3-yl]methyl}-7H-imidazo[4,5-c]pyridazin-3-yl)phenol hydrochloride] | 30 to 100 | 
Cc1cc(Cl)cc(O)c1-c1cc2ncn(C[C@H]3CCCN(C)C3)c2nn1 [Compound 80, 5-Chloro-3-methyl-2-(7-{[(3S)-1-methylpiperidin-3-yl]methyl}-7H-imidazo[4,5-c]pyridazin-3-yl)phenol hydrochloride] | 100 to 300 | 
